# “Also recorded” adds a separate entry of the source.
# Tests used:
# [1] = system: V. fisheri lux quorum sensing system (LuxR); test: V. fisheri luxR PluxI-gfp(ASV) reporter in PAO-JP2 biofilm; format: cell-based, Pseudomonas aeruginosa
# Experimental: P. aeruginosa biofilms. Biofilms were grown at 30° C. in three-dimensional flow cells (Christensen et al., 1999) with individual channel dimensions of 0.3×4×40 mm supplied With ABt minimal medium supplemented with 2% LB. The flow system was assembled and prepared as described by Christensen et al. (1999). The substratum consisted of a microscope glass coverslip (Knittel 24×50 mm st1, Knittel Glaser, Braunschweig, Germany). Cultures for inoculation of the flow channels were prepared in the following way: P. aeruginosa strains were streaked on LB plates with the appropriate antibiotics and incubated for 24 h at 37° C. From each plate a single colony was used for inoculation of 10 ml ABt with 10% LB. The cultures were grown at, 30° C. for 18 h before they were diluted to an OD600 nm of 0.1 in sterile 0.9% NaCl and used for inoculation of the flow channels. Medium flow was kept at a constant rate of 3 mL/h, equivalent to a mean flow velocity of 0.7 mm/s, using a Watson-Marlow 205S peristaltic pump (Watson-Marlow, Falmouth, England). Biofilms were grown for 24 hours before being shifted to media containing AHL and furanone.
# Scanning confocal laser microscopy (SCLM). Microscopic inspection and image acquisition were performed an a scanning confocal laser microscope (model TCS4D, Leica Lasertechnik GmbH, Heldelberg, Germany) equipped with a 63×/1.32-0.6 oil objective. The microscope was equipped with a motorized and programmable xy-stage, which was used for monitoring single colonies during the biofilm experiments. At the beginning of each online experiment, the microscope was programmed to track single randomly selected microcolonies; the sensitivity of photo multipliers and the laser intensity were adjusted and thereafter kept constant through out the duration of the experiments. Image scanning was carried out using the 488 nm and 568 nm lines of an Ar/Kr laser for detection of Gfp and Rfp, respectively. Visualization of captured images was performed using the IMARIS software package (Bitplane AG, Zúrich, Switzerland) running on a Silicon Graphics Indigo 2 workstation (Silicon Graphics, Mountain View, Calif. USA).
# Repression of LuxR-activated quorum sensing controlled gene transcription. We speculated that the AHL-antagonstic properties of furanone 56 was specific to the P. aeruginosa las quorum sensing system. To test this, a previously published quorum sensing reporter based on the Vibro fisherf luxR gene and Pluxl-gfp(ASV) (Anderson at al, 2001; Wu et al, 2000) was transferred to PAO-JP2.
# [2] = system: protein synthesis (araC-PBAD-gfp(ASV)); test: araC-PBAD-gfp(ASV) expression in biofilm, protein synthesis control; format: cell-based, Pseudomonas aeruginosa; details: furanone 56 below 10 μg/ml, 0.2% L-arabinose; data not shown
# Experimental: To determine if the furanone-mediated inhibition of green fluorescence is due to subtle non-specific effects on protein synthesis when the bacteria are growing in a biofilm, we examined expression of green fluorescence in cells harboring the araC-PBAD-gfp(ASV) cassette induced by suboptimal levels of L-arabinose is (0.2%). The cells became green fluorescent within 2 hours after induction.
# [3] = system: OHHL induced LuxR dependent expression of GFP; test: Quantitative furanone inhibition of the LuxR-PluxI-gfp(ASV) quorum sensor in E. coli MT102 (pJBA89); format: cell-based, Escherichia coli; details: gradient of furanone concentration lowering RFU to 40% versus OHHL concentration (5-100 nM)
# Description: To analyse the AHL antagonist activity of the halogenated furanones we tested the compounds for their ability to inhibit 3oxo-C6-HSL (OHHL) induced LuxR dependent expression of green fluorescent protein (GFP) from a Pgfp(ASV) fusion in the AHL monitor strain E. coli MT102 harbouring pJBA89 (Andersen et al., 2001).
# The medium used is minimal ABT containing 0.5% glucose and 0.5% Casamino Acids. In growing cultures of the AHL monitor strain E. coli Mt102 (pJBA89) encoding […] and a P-gfp(ASV) fusion, GFP(ASV) is produced immediately upon OHHL addition specifically from the LuxR controlled P-gfp(ASV) fusion gene. The sensitivity is high (responsive to as little as 3 nm OHHL) and due to the instability built into the GFP (ASV) variant there is no background production of green fluoroscence (Andersen et al., 2001). GFP expression from the AHL monitor strain E. coli MT102 (pJBA89) and the control strain MT102 harbouring the lacl^q, Plas-gfp(ASV) IPTG inducible expression system pMH197 was quantified in the following way. Overnight cultures were diluted four fold in fresh medium and incubated for one hour at 30° C. while OHHL and furanone compounds in the required concentrations were mixed in the wells of microtiter dishes. […] When absolute values were required, green fluoroscence was measured on a fluorometer (model RF-1501; Shimadzu, Tokyo, Japan) act at an excitation wavelength of 475 nm and emission detection at 515 nm. To establish a correlation between the colour code of the ARGUS-50 captured images and green fluorescence, both colour and relative fluorescence units (RFU), were determined for a dilution series of an E. coli MT102 (pJBA89) culture which had been incubated with […]. […]
# From the second plot, the furanone concentration reducing the relative activity to 40% (ID60) is determined for each OHHL concentration. […]
# To enable easy comparison of the strength of the furanones, an inhibition index (IIX40) is calculated for each furanone compound. […]
compound,measurement,setting,value
O=C1C=C/C(=C/Br)O1 [furanone 56],green fluorescence of biofilm,"[1]; 250 nM OHHL and 15 μg/ml furanone 56, 7 hours",completely disappeared
same,green fluorescence of biofilm,"[1]; 250 nM OHHL and 15 μg/ml furanone 56, six hours",almost completely disappeared
same,green fluorescence of biofilm,"[1]; 250 nM OHHL and 15 μg/ml furanone 56, two hours",significantly less green fluorescent; also recorded: decreased significantly
same,effect on Gfp-expression,[2],no effect on Gfp-expression
same,inhibition index (IIX40),[3],0.51 mole of furanone per mmole of

# Reference: patent US20040147595A1, “Biofilm degrading or sloughing compositions and methods” (priority 2001, published 2004)
